The values below come from PubChem BioAssay (NCI).

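Results reflect a 48-hour exposure of cells in 96-well plates to compound at five concentrations. GI50 marks 50% less growth. TGI: concentration producing complete growth inhibition.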

Experiment in all cases: inhibition of tumour cell growth, NCI panel, 48 h
Assay [1] has as its system 786-0 renal.
The subject of assay [2] is TK-10 renal.
Assay [3] relates to BT-549 breast.
Assay [4] concerns NCI/ADR-RES ovarian.
For assay [5], the system named is RXF 393 renal.
The test system of assay [6] is A498 renal.
Assay [7] deals with T-47D breast.
The test system of assay [8] is UACC-257 melanoma.
The test system of assay [9] is HOP-92 NSCLC.
Assay [10] deals with COLO 205 colon.

Consider `CN(C)c1nc2sc3c(c2c(=O)o1)CCCC3`, for which the TGI in [1] is more than 100 µM; in assay [2], more than 100 µM; in [3], 65.5 µM; in [4], more than 100 µM; in assay [5], more than 100 µM; in assay [6], 66.8 µM. Also, the TGI in [7] was more than 100 µM; in [8], more than 100 µM; in [9] it was more than 100 µM; in assay [10], 53.1 µM.
As to `CCOC(=O)c1ccc(N=NN(C)C(=O)C(C)N)cc1` (configuration not stated), the TGI in [1], in assay [2], in assay [3], in [4], in [5] and in assay [7] was more than 100 µM each time. For the same molecule, the TGI in [8], in assay [9] and in assay [10] was more than 100 µM throughout.
For `CCCC(=O)O`, the TGI is more than 18700 µM in assay [1]; more than 18700 µM in [2]; more than 18700 µM in [3]; more than 18700 µM in assay [4]; 16100 µM in assay [5]; 10400 µM in [6]. Further, the values for the TGI in [7], in [9] and in assay [10] were 9400 µM, 14200 µM and 9160 µM, respectively. The results for the GI50 in assay [2], in assay [4] and in [10] were 2120 µM, 1460 µM and 2550 µM, respectively.
For `C=CCC1(O)c2ccccc2C(=O)c2c(O)ccc(O)c21` (configuration not stated), the TGI in [1] was determined as 31.8 µM; in [2] it was 47.1 µM; in [3], 36.3 µM; in [4] it was 12.1 µM; in assay [5], 21.4 µM; in [6], 25.8 µM. Further, the TGI in assay [7] was more than 59.2 µM; in assay [8], 19 µM; in [9] it was 41.1 µM; in [10], 26.9 µM.
On to `Clc1ccc2c(SCC3CO3)c3ccccc3nc2c1` (configuration not stated), for which the TGI in assay [1] was found to be 3.44 µM; in [2] it was 3.35 µM; in [3] it was 18.7 µM; in assay [4] it was 7.24 µM; in assay [5], 8.08 µM; in assay [6], 33.9 µM. Also, the TGI in [7] came to 4.97 µM; in [8] it was 9.3 µM; in assay [9], 5.08 µM; in [10], 10.7 µM.
On to `O=C1C2CCCCC2C(=O)N1n1c(Cc2ccc(Cl)cc2)n[nH]c1=O` (configuration not stated), for which the TGI in [1], in [2], in assay [3], in assay [4], in assay [5] and in assay [6] was more than 100 µM throughout. The TGI in assay [7], in assay [8], in [9] and in [10] was more than 100 µM each time.
Consider `O=C1c2c(F)c(F)c(F)c(F)c2SC2=NCCN12`, for which the TGI was found to be 19.8 µM in assay [1]; 22.4 µM in assay [2]; 28 µM in [3]; 31.3 µM in assay [4]; 8.89 µM in [5]; 32.9 µM in [6]. The TGI in assay [7] came out at 29 µM; in assay [8], 21.8 µM; in [9] it was 9.19 µM; in [10] it was 19 µM.
For the molecule `O=C1Oc2ccccc2C(=O)/C1=C/N1C(=O)N/C(=C\c2ccccc2O)C1=O`, the TGI in assay [1], in [2], in [3], in assay [4], in assay [5] and in assay [6] was more than 100 µM in each case. Besides, the TGI was more than 85.5 µM in assay [7], more than 100 µM in assay [8], more than 91 µM in [9] and more than 100 µM in assay [10].
For the molecule `O=C1c2ccccc2C2CNC1(O)c1ccccc12` (configuration not stated), the TGI in [1], in [2], in [3], in assay [4], in [5] and in [6] was more than 100 µM each time. The TGI in assay [7], in assay [8], in assay [9] and in assay [10] was more than 100 µM each time.
As for `C=C(C)C(=O)CC[C@@H](C)[C@H]1[C@@H](OC2OC(CO)C(O)C(O)C2O)C[C@@]2(C)[C@@H]3C[C@H](O)C4C(C)(C)[C@@H](OC5OC(CO)C(O)C(O)C5O)CC[C@@]45C[C@@]35CC[C@]12C` (some centres not stated), the TGI in [1], in [2], in assay [3], in [4], in assay [6] and in assay [7] was more than 100 µM throughout. Further, the TGI in [8], in assay [9] and in assay [10] was more than 100 µM throughout.
Consider `COC(=O)c1cn(CCCC(=O)O)nn1`, for which the TGI in assay [1], in [2], in [3], in assay [4], in assay [5] and in assay [7] was more than 100 µM throughout. Also, the TGI in [8], in assay [9] and in [10] was more than 100 µM throughout.
With `Cc1ccc(C2CC(=O)CC(c3ccc(C)cc3)C23C(=O)NC(=O)NC3=O)cc1` (configuration not stated), the TGI in assay [1], in assay [2], in assay [3], in assay [4], in assay [5] and in [7] was more than 100 µM throughout. The TGI in [8], in [9] and in assay [10] was more than 100 µM throughout.
Regarding `COc1ccc(-c2nc(N)c(C#N)c3c2CCS(=O)(=O)c2ccc(C)cc2-3)cc1OC`, the TGI in assay [1] was more than 100 µM; in assay [2], more than 100 µM; in assay [3] it was more than 100 µM; in assay [4], more than 100 µM; in assay [6], 62.5 µM; in assay [7], more than 100 µM. Besides, the TGI in assay [8] was more than 100 µM; in assay [9], more than 100 µM; in assay [10], 79.5 µM.
